Measured values reported in patent publication US11497751B2, “Modulators of Rho-associated protein kinase” (Redx Pharma PLC, priority 2018, dated 2022).

Target: T1, N-terminal 6His-tagged ROCK2 catalytic domain 11-552 (Homo sapiens, UniProt O75116)
T1 construct: N-terminal 6His-tagged ROCK2 catalytic domain 11-552; 6His (N); purchased Dundee University, UK; host or cells: baculovirus expression system
Assay: ROCK2 binding activity: ROCK2 inhibition, ADP-Glo Kinase Assay
Assay type: biochemical
Details: 1.25 nM ROCK2, 100 μM long S6 peptide, 20 μM ATP; 1 hour pre-incubation; read-out: ADP-Glo kinase activity assay ROCK2 Category
How it was run: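 1.25 nM baculovirus-expressed ROCK2 pre-incubated 1 h with compound (1% DMSO), then 100 μM long S6 peptide and 20 μM ATP added for 1 h; 50 mM HEPES pH 7.5, 10 mM Mg acetate, 1 mM DTT. ADP-Glo luminescence; IC50 from four-parameter logistic fit.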

T1 sequence (O75116 11-552): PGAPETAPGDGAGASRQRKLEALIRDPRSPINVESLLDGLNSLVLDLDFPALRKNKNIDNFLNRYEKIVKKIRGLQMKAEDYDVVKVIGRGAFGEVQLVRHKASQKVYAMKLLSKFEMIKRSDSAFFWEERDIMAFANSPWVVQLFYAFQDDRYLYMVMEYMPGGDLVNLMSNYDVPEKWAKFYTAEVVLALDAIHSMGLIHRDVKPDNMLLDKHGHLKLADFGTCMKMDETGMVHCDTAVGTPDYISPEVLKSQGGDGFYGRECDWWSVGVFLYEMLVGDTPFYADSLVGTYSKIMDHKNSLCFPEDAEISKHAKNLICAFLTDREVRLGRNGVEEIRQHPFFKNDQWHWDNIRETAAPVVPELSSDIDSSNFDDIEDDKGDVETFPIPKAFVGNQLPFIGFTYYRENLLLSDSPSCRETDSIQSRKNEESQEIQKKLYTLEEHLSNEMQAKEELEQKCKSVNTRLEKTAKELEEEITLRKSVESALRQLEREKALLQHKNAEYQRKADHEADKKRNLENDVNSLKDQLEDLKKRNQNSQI

Structure (SMILES) | IC50 [µM]
CCNC(=O)c1ccc(-c2nc(Nc3ccc4[nH]ncc4c3)n(C)n2)cc1C(F)(F)F [Example 398] | 3 to 10
CCNC(=O)c1ccc(-c2nc(Nc3ccc4[nH]ncc4c3)n(C)n2)c(C(F)(F)F)c1 [Example 408] | 0.3 to 3
CCNC(=O)c1c(F)cc(-c2nc(Nc3ccc4[nH]ncc4c3)n(C)n2)cc1F [Example 410] | 0.3 to 3
CN1CCc2cc(-c3nc(Nc4ccc5[nH]ncc5c4)n(C)n3)ccc2C1 [Example 414] | 3 to 10
Cc1c(Nc2nc(-c3ccc(C(=O)NCC(F)(F)F)nc3)nn2C)ccc2[nH]ncc12 [Example 418] | 0.3 to 3
COc1cc(-c2nc(Nc3ccc4[nH]ncc4c3C)n(C)n2)cnc1C(=O)NC1CC1 [Example 420] | 0.3 to 3
Cc1c(Nc2nc(-c3ccc(C(N)C(F)(F)F)cc3)nn2C)ccc2[nH]ncc12 (stereo not shown) [Example 422] | > 10
CC(C)c1c(Nc2nc(-c3ccc(C(=O)NCC(F)(F)F)cc3)nn2C)ccc2[nH]ncc12 [Example 425] | 0.3 to 3
Cc1n[nH]c2ccc(Nc3nc(-c4ccc(C(=O)NCC(F)(F)F)cc4)nn3C)cc12 [Example 427] | < 0.3
Cn1nc(-c2ccc(C(=O)NCC(F)(F)F)cc2)nc1Nc1ccc2[nH]nc(F)c2c1 [Example 428] | < 0.3
COc1cc(-c2nc(Nc3ccc4[nH]nc(Cl)c4c3)n(C)n2)ccc1C(=O)NCC(F)(F)F [Example 429] | < 0.3
Cn1nc(-c2ccc(C(=O)NCC(F)(F)F)cc2)nc1Nc1ccc2[nH]nc(Cl)c2c1 [Example 430] | < 0.3
COc1cc(-c2nc(Nc3cc4cn[nH]c4cc3F)n(C)n2)ccc1C(=O)NC(C)(C)C [Example 432] | 3 to 10
COc1cc(-c2nc(Nc3cnc4[nH]ncc4c3)n(C)n2)ccc1OCC(=O)NC(C)C [Example 433] | 0.3 to 3
COc1cc(-c2nc(Nc3ccc4[nH]ncc4c3Cl)n(CCN3CCOCC3)n2)ccc1OCC(=O)NC(C)C [Example 434] | < 0.3
Cc1cc(-c2nc(Nc3ccc4[nH]ncc4c3Cl)n(CC(C)C)n2)ccc1C(=O)NCC(F)(F)F [Example 435] | < 0.3
COc1cc(-c2nc(Nc3ccc4[nH]ncc4c3Cl)n(CC(C)C)n2)ccc1OCC(=O)NC(C)C [Example 436] | < 0.3

Structure (SMILES) | IC50 [µM]
COc1cc(-c2nc(Nc3ccc4[nH]ncc4c3Cl)n(CC(C)C)n2)ccc1C(=O)NCC(F)(F)F [Example 437] | < 0.3
COCCn1nc(-c2ccc(C(=O)NCC(F)(F)F)cc2)nc1Nc1ccc2[nH]ncc2c1C1CC1 [Example 438] | < 0.3
COCCn1nc(-c2ccc(C(=O)NCC(F)(F)F)c(OC)c2)nc1Nc1ccc2[nH]ncc2c1C1CC1 [Example 439] | < 0.3
COCCn1nc(-c2ccc(C(=O)NC3CC3)cc2)nc1Nc1ccc2[nH]ncc2c1C1CC1 [Example 440] | < 0.3
CCn1nc(-c2ccc(C(=O)NCC(F)(F)F)c(OC)c2)nc1Nc1ccc2[nH]ncc2c1C1CC1 [Example 441] | < 0.3
O=C(NCC(F)(F)F)c1ccc(-c2nc(Nc3ccc4[nH]ncc4c3C3CC3)n(C3CCNCC3)n2)cc1 [Example 442] | < 0.3
CNCCn1nc(-c2ccc(C(=O)NCC(F)(F)F)cc2)nc1Nc1ccc2[nH]ncc2c1C1CC1 [Example 443] | < 0.3
CC(O)Cn1nc(-c2ccc(C(=O)NCC(F)(F)F)cc2)nc1Nc1ccc2[nH]ncc2c1C1CC1 (stereo not shown) [Example 444] | < 0.3
COc1cc(-c2nc(Nc3ccc4[nH]ncc4c3)n(CCN3CCCCC3)n2)ccc1OCC(=O)NC(C)C [Example 445] | < 0.3
COc1cc(-c2nc(Nc3ccc4[nH]ncc4c3)n(CCN3CCOCC3)n2)ccc1OCC(=O)NC(C)C [Example 446] | < 0.3
COCCn1nc(-c2ccc(OCC(=O)NC(C)C)c(OC)c2)nc1Nc1ccc2[nH]ncc2c1 [Example 447] | < 0.3
COCCn1nc(-c2ccc(C(=O)NCC(F)(F)F)c(OC)c2)nc1Nc1ccc2[nH]ncc2c1C [Example 448] | < 0.3
COc1cc(-c2nc(Nc3ccc4[nH]ncc4c3C)n(C(C)C)n2)ccc1C(=O)NCC(F)(F)F [Example 449] | < 0.3
COc1cc(-c2nc(Nc3ccc4[nH]ncc4c3C)n(C(C)C)n2)ccc1OCC(=O)NC(C)C [Example 450] | < 0.3
Cc1cc(-c2nc(Nc3ccc4[nH]ncc4c3C)n(CC(C)C)n2)ccc1C(=O)NCC(F)(F)F [Example 451] | < 0.3
COc1cc(-c2nc(Nc3ccc4[nH]ncc4c3C)n(CC(C)C)n2)ccc1OCC(=O)NC(C)C [Example 452] | < 0.3

Results, then the compound that gave them:

IC50 [µM] | Structure (SMILES)
< 0.3 | CC(C)NC(=O)COc1ccc(-c2nc(Nc3ccc4[nH]ncc4c3)n(C)n2)cc1C(F)(F)F [Example 397]
< 0.3 | CCNC(=O)c1ccc(-c2nc(Nc3ccc4[nH]ncc4c3)n(C)n2)c(C)c1 [Example 399]
< 0.3 | CC(C)NC(=O)COc1ccc(-c2nc(Nc3ccc4[nH]ncc4c3)n(C)n2)cc1C#N [Example 400]
< 0.3 | Cc1cc(OCC(=O)NC(C)C)ccc1-c1nc(Nc2ccc3[nH]ncc3c2)n(C)n1 [Example 401]
< 0.3 | CC(C)NC(=O)COc1ccc(-c2nc(Nc3ccc4[nH]ncc4c3)n(C)n2)c(C(F)(F)F)c1 [Example 402]
< 0.3 | CC(C)NC(=O)COc1ccc(-c2nc(Nc3ccc4[nH]ncc4c3)n(C)n2)c(C#N)c1 [Example 403]
< 0.3 | COc1cc(OCC(=O)NC(C)C)ccc1-c1nc(Nc2ccc3[nH]ncc3c2)n(C)n1 [Example 404]
< 0.3 | CC(C)NC(=O)COc1ccc(-c2nc(Nc3ccc4[nH]ncc4c3)n(C)n2)c(F)c1 [Example 405]
< 0.3 | CCNC(=O)c1ccc(-c2nc(Nc3ccc4[nH]ncc4c3)n(C)n2)c(F)c1 [Example 406]
< 0.3 | CC(C)NC(=O)COc1ccc(-c2nc(Nc3ccc4[nH]ncc4c3)n(C)n2)c(Cl)c1 [Example 407]
< 0.3 | CCNC(=O)c1cc(F)c(-c2nc(Nc3ccc4[nH]ncc4c3)n(C)n2)cc1F [Example 409]
< 0.3 | CC(C)NC(=O)COc1ccc(-c2nc(Nc3ccc4[nH]ncc4c3)n(C)n2)c(F)c1F [Example 411]
< 0.3 | CCNC(=O)c1ccc(-c2nc(Nc3ccc4[nH]ncc4c3)n(C)n2)cc1C#N [Example 412]
< 0.3 | CCNC(=O)c1cc(F)c(-c2nc(Nc3ccc4[nH]ncc4c3)n(C)n2)c(F)c1 [Example 413]
< 0.3 | CC(C)NC(=O)COc1c(F)cc(-c2nc(Nc3ccc4[nH]ncc4c3)n(C)n2)cc1F [Example 415]
< 0.3 | CC(C)NC(=O)COc1cc(F)c(-c2nc(Nc3ccc4[nH]ncc4c3)n(C)n2)cc1F [Example 416]
< 0.3 | Cc1cc(-c2nc(Nc3ccc4[nH]ncc4c3C)n(C)n2)ccc1C(=O)NCC(F)(F)F [Example 417]
< 0.3 | Cc1c(Nc2nc(-c3ccc(C(=O)NCC(F)(F)F)c(F)c3F)nn2C)ccc2[nH]ncc12 [Example 419]
< 0.3 | Cc1c(Nc2nc(-c3ccc(C(=O)NCC(F)(F)F)cc3)nn2C)ccc2[nH]ncc12 [Example 421]
< 0.3 | CCc1c(Nc2nc(-c3ccc(C(=O)NCC(F)(F)F)cc3)nn2C)ccc2[nH]ncc12 [Example 423]
< 0.3 | CCc1c(Nc2nc(-c3ccc(C(=O)NCC(F)(F)F)c(C)c3)nn2C)ccc2[nH]ncc12 [Example 424]
< 0.3 | C=Cc1c(Nc2nc(-c3ccc(C(=O)NCC)cc3)nn2C)ccc2[nH]ncc12 [Example 426]
